Measurements published in US20120329749A1, “Methods Of Preventing Or Treating Disease States Related To Certain Metabolic Abnormalities” (priority 2011, published 2012).

Test system: erectile dysfunction
Assay: Patient-reported erectile dysfunction symptoms
Description: The patient was placed on a regimen of 5,0 mg L-methylfolate and 2 mg methyl-B12 per day.
The patient was placed on a regimen of 2.8 mg L-methylfolate and 2 mg methyl-B12 per day.
The patient was placed on a regimen of 5.0 mg L-methylfolate and 2 mg methyl-B12 per day.
The patient was placed on a regimen of L-methylfolate, methyl-B12, and pyridoxal-5-phosphate (PSP; active vitamin B6) twice per day.
The patient was placed on a regimen of L-methylfolate, methyl-B12, and pyridoxal-5-phosphate (P5P; active vitamin B6) twice per day.

SMILES: CCCc1nn(C)c2c(=O)[nH]c(-c3cc(S(=O)(=O)N4CCN(C)CC4)ccc3OCC)nc12 [Viagra]
- effect on erectile dysfunction (patient history) (Patient 20, 50 mg for 2 months): ineffective
- effect on erectile dysfunction (patient history) (Patient 21, 20 mg for 1 month): ineffective
